IC50 and Activity data for 9 compounds are collected here from ChEMBL document CHEMBL5576089, “Discovery of Oxidized p-Terphenyls as Phosphodiesterase 4 Inhibitors from Marine-Derived Fungi” (J Nat Prod, 2024).

In series [1] the target is Phosphodiesterase 4 (Homo sapiens, UniProt P27815+Q08499+Q07343+Q08493). As to the kind of experiment: Inhibition of PDE4 (unknown origin) using [3H]cAMP[…] as substrate incubated for 15 mins by phosphodiesterase scintillation proximity assay. The class given is protein assay. (In general: SPA uses beads or plates that emit light when radiolabelled molecules are held near them.)

Series [2] has as its system MRC5. The experiment in a line: Anti-fibrotic activity in TGF-beta1-activated human MRC5 cells assessed as reduction in COL1 protein expression incubated for 48 hrs by Western blot analysis. Type of series: functional, cell-based. Conditions: dose 5-20 µM. (In general: A western blot detects proteins with antibodies after separation by electrophoresis.)
Series [3] has as its system MRC5. The experiment in a line: Anti-fibrotic activity in TGF-beta1-activated human MRC5 cells assessed as reduction in COL-1 mRNA level at 5 to 20 uM incubated for 48 hrs by RT-qPCR analysis. Conditions: dose 5-20 µM. Type of series: functional, cell-based. Background: Quantitative PCR measures a nucleic acid by following its amplification.
Series [4] deals with RAW264.7. As to the kind of experiment: Cytotoxicity against mouse RAW264.7 cells assessed as reduction in cell viability at 10 to 160 uM incubated for 48 hrs by CCK8 assay. The class given is toxicity, cell-based. Conditions: raw264.7, 48 h, dose 10-160 µM.
The test system of series [5] is MRC5. As to the kind of experiment: Anti-fibrotic activity in TGF-beta1-activated human MRC5 cells assessed as reduction in alpha-SMA protein expression at 20 uM incubated for 48 hrs by DAPI staining based immunofluorescence microscopic analysis. Type of series: functional, cell-based.
The test system of series [6] is RAW264.7. As to the kind of experiment: Antiinflammatory activity in LPS-induced mouse RAW264.7 cells assessed as reduction in IL-6 mRNA level at 10 to 20 uM preincubated with compound for 4 hrs followed by LPS stimulation and measured after 24 hrs by RT-qPCR analysis. The class given is functional, cell-based. Conditions: dose 10-20 µM, time 28.0 hrs.
Series [7] concerns MRC5. As to the kind of experiment: Anti-fibrotic activity in TGF-beta1-activated human MRC5 cells assessed as reduction in alpha-SMA protein expression incubated for 48 hrs by Western blot analysis. The class given is functional, cell-based. Conditions: dose 5-20 µM.
Series [8] relates to MRC5. The experiment in a line: Anti-fibrotic activity in TGF-beta1-activated human MRC5 cells assessed as reduction in COL1 protein expression at 20 uM incubated for 48 hrs by DAPI staining based immunofluorescence microscopic analysis. The class given is functional, cell-based.
In series [9] the test system is MRC5. As to the kind of experiment: Anti-fibrotic activity in TGF-beta1-activated human MRC5 cells assessed as reduction in FN1 mRNA level at 5 to 20 uM incubated for 48 hrs by RT-qPCR analysis. Type of series: functional, cell-based. Conditions: dose 5-20 µM.
Series [10] concerns RAW264.7. As to the kind of experiment: Antiinflammatory activity in LPS-induced mouse RAW264.7 cells assessed as reduction in IL-1beta mRNA level at 10 to 20 uM preincubated with compound for 4 hrs followed by LPS stimulation and measured after 24 hrs by RT-qPCR analysis. Type of series: functional, cell-based. Conditions: dose 10-20 µM, time 28.0 hrs.
Series [11] has as its system MRC5. The experiment in a line: Anti-fibrotic activity in TGF-beta1-activated human MRC5 cells assessed as reduction in FN1 protein expression incubated for 48 hrs by Western blot analysis. Type of series: functional, cell-based. Conditions: dose 5-20 µM.
Series [12] has as its system NIH3T3. The experiment in a line: Anti-fibrotic activity in TGF-beta1-induced mouse NIH3T3 cells assessed as reduction in fibronectin expression at 20 uM incubated for 48 hrs by Western blot analysis. Type of series: functional, cell-based.
Series [13] relates to RAW264.7. As to the kind of experiment: Antiinflammatory activity in LPS-induced mouse RAW264.7 cells assessed as reduction in TNF-alpha mRNA level at 10 to 20 uM preincubated with compound for 4 hrs followed by LPS stimulation and measured after 24 hrs by RT-qPCR analysis. Type of series: functional, cell-based. Conditions: dose 10-20 µM, time 28.0 hrs.
The subject of series [14] is MRC5. As to the kind of experiment: Anti-fibrotic activity in TGF-beta1-activated human MRC5 cells assessed as reduction in alpha-SMA mRNA level at 5 to 20 uM incubated for 48 hrs by RT-qPCR analysis. Type of series: functional, cell-based. Conditions: dose 5-20 µM.
In series [15] the test system is NIH3T3. The experiment in a line: Cytotoxicity against mouse NIH3T3 cells assessed as reduction in cell viability incubated for 48 hrs. Type of series: toxicity, cell-based. Conditions: nih3t3, 48 h.
The subject of series [16] is MRC5. As to the kind of experiment: Anti-fibrotic activity in TGF-beta1-activated human MRC5 cells assessed as reduction in COL1 mRNA level at 10 uM incubated for 48 hrs by RT-qPCR analysis. Type of series: functional, cell-based.
Series [17] deals with MRC5. The experiment in a line: Anti-fibrotic activity in TGF-beta1-activated human MRC5 cells assessed as reduction in FN1 mRNA level at 10 uM incubated for 48 hrs by RT-qPCR analysis. Type of series: functional, cell-based.
Series [18] relates to MRC5. The experiment in a line: Anti-fibrotic activity in TGF-beta1-activated human MRC5 cells assessed as reduction in alpha-SMA mRNA level at 10 uM incubated for 48 hrs by RT-qPCR analysis. Type of series: functional, cell-based.

Active and inactive are the calls of the source. The calls are words filed in the database; no cut-off is given here.

As usually defined, the IC50 is the point on the concentration scale where inhibition reaches its midpoint. Read a high IC50 as lower potency. For the compound `COc1c(O)c(-c2ccccc2)c(O)c(OC)c1-c1ccccc1`, the IC50 in [1] came out at 400 nM.

In series [1], `COc1ccc(-c2c(OC)cc(-c3ccc(O)c(CC=C(C)C)c3)c(OC)c2O)cc1OC` came in with an IC50 of 1800 nM.

`COc1c(-c2ccc(O)cc2)cc(O)c(-c2ccccc2)c1O`: the half-maximal inhibitory concentration (IC50) in series [1] amounted to 16000 nM.

For `COc1cc(-c2ccccc2)c(OC)c(O)c1-c1ccc(OCC=C(C)C)c(O)c1`, in [1], the IC50 was determined as 3500 nM.

Compound `COc1c(O)c(-c2ccccc2)c(O)c(OC)c1-c1ccc(O)cc1` displayed an IC50 in series [1] of 620 nM. Against the preceding compound, the IC50 is about 5.6-fold lower.

In series [1], `COc1cc(-c2ccc(O)c(CC=C(C)C)c2)c(OC)c(O)c1-c1ccc(OCC=C(C)C)c(O)c1` showed an IC50 of 3000 nM.

Turning to `COc1c(O)c(-c2ccccc2)c(OC(C)=O)c(OC)c1-c1ccccc1`, the Activity result in series [2] was “Dose-Dependent Effect”; in series [4], “Non-Toxic”; in series [7], “Dose-Dependent Effect”; in series [11], “Dose-Dependent Effect”; in series [15], “Non-Toxic”. Besides, the result in series [3], in [5], in series [6], in series [8], in [9] and in series [10] was Active. Also, the result in series [12], in [13] and in series [14] was Active. Moreover, in series [1], the IC50 was determined as 1200 nM.

Turning to `Cc1ccc(=O)n(-c2ccccc2)c1`, the outcome in series [16], in series [17] and in series [18] was Active.

On to `COc1cc(-c2ccc(O)cc2)c(OC)c(O)c1-c1ccc(O)c(CC=C(C)C)c1` [PRENYLTERPHENYLLIN], for which, in series [1], the IC50 is 4200 nM.
